Activity calls are given as the source filed them.
Experiments:
Large T antigen = Large T antigen (Simian virus 40, UniProt P03070); format: functional, Betapolyomavirus macacae;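 also: Confirmatory-stage PubChem screen for compounds that inhibit SV40 T antigen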
Protein RecA = biological target: T1, Protein RecA (Mycobacterium tuberculosis, UniProt P9WHJ3); experiment: Fluorescence Cell-Free Homogeneous Dose Retest to Identify Inhibitors of RecA-Intein Splicing Activity. [Related pubchem assays (depositor defined):AID2097, AID2223, AID489010, AID492950]; format: functional
T1 sequence (P9WHJ3 whole entry): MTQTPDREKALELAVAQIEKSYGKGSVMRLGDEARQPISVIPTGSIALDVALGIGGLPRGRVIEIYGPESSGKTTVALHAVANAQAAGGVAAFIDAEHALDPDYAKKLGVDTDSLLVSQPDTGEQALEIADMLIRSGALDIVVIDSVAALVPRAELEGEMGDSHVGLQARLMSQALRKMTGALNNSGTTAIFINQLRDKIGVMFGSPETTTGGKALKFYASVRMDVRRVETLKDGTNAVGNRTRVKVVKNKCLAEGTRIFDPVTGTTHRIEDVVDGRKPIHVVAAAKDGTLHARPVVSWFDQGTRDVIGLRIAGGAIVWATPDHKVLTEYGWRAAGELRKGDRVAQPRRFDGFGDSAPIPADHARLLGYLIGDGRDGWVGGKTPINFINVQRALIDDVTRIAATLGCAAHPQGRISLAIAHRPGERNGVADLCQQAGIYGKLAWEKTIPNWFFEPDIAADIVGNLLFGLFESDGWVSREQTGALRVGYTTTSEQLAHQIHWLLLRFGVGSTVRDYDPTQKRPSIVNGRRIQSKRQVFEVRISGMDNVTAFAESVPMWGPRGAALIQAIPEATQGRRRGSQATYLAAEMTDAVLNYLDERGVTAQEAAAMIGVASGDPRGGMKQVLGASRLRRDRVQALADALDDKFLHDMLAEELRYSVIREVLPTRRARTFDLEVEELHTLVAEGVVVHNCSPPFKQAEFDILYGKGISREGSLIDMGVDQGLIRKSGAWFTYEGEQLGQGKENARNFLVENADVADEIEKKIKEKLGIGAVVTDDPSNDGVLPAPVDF

[1] = biological target: T2, Replicative DNA helicase DnaB (Mycobacterium tuberculosis, UniProt P9WMR3); experiment: DnaB intein splicing inhibitors, dose response, biochemical, cell-free fluorescence (AID 449749); format: functional
T2 sequence (P9WMR3 whole entry): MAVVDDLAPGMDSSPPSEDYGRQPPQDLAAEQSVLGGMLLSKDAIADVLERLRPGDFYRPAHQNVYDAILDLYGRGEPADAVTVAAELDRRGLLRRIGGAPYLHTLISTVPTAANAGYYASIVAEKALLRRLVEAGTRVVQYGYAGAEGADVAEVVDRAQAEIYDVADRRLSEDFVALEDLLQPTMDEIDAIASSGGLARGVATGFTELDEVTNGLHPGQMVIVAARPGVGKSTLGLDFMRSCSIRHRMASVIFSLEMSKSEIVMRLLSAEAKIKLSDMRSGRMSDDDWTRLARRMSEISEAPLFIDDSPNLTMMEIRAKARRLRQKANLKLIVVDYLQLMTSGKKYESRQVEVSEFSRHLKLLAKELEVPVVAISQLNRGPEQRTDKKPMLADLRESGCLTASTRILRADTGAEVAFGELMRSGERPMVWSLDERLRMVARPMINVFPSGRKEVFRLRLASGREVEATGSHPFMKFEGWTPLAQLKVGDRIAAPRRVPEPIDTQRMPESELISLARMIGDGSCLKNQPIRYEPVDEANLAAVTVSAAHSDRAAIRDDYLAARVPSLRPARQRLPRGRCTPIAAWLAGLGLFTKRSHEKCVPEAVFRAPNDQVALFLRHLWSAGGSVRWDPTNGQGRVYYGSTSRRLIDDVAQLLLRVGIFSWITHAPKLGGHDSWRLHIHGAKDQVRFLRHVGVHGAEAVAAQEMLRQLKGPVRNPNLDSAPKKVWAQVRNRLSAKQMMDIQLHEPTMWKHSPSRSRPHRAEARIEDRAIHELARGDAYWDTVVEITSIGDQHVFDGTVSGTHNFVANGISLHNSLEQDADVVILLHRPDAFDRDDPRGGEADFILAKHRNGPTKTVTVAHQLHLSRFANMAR

[2] = biological target: T3, Rac GTPase-activating protein 1 (Homo sapiens, UniProt Q9H0H5); experiment: MgcRacGAP GTPase-activating activity inhibitors, confirmation, biochemical, ADP Hunter fluorescence, primary and confirmatory (AID 624330); format: functional
T3 sequence (Q9H0H5 whole entry): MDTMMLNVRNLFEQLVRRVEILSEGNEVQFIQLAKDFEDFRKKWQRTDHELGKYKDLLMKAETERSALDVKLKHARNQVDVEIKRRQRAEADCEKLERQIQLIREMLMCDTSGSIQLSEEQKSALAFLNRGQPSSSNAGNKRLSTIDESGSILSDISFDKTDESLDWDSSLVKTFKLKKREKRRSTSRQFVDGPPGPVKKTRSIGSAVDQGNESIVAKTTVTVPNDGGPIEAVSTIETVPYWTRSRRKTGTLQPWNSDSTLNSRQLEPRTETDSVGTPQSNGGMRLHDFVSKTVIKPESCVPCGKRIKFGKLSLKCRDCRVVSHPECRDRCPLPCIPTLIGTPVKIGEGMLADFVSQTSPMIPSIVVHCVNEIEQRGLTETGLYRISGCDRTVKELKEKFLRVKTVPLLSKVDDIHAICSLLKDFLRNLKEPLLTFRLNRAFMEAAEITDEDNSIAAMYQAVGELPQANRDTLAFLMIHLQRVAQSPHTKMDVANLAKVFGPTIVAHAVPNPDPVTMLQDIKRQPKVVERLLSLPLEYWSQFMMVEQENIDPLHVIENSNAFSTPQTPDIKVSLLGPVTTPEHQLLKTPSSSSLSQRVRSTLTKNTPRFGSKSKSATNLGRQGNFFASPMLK

[3] = biological target: T4, Corticotropin-releasing factor receptor 2/Corticotropin-releasing factor-binding protein (Homo sapiens, UniProt P24387+Q13324); experiment: activators of CRF receptor 2 with binding protein – uHTS hits, confirmation (AID 602473); format: functional; conditions: read-out: EC50_Mean
T4 sequence (Q13324 whole entry): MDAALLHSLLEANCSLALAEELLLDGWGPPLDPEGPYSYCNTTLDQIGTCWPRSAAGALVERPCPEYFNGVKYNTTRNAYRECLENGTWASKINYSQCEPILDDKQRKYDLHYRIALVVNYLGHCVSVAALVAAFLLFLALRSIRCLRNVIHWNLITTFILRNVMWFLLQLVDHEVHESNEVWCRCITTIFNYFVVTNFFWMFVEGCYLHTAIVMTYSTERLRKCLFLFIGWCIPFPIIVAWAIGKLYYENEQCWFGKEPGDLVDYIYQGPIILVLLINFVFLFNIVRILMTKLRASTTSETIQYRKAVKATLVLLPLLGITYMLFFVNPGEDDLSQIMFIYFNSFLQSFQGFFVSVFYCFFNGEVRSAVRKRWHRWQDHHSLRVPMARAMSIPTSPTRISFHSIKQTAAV
T4 sequence (P24387 whole entry): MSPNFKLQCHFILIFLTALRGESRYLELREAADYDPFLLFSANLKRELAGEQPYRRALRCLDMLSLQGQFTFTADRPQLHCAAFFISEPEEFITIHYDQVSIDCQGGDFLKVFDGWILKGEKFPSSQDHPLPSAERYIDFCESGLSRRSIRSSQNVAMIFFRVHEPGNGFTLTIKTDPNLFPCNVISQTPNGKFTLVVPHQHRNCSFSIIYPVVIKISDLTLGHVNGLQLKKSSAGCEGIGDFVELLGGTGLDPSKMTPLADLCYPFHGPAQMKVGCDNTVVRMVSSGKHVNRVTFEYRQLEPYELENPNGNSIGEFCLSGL

[4] = biological target: T4, Corticotropin-releasing factor receptor 2/Corticotropin-releasing factor-binding protein; experiment: Dose Response confirmation of uHTS hits for small molecule antagonists of the CRF-binding protein and CRF-R2 receptor complex.; format: functional; conditions: read-out: IC50_Mean
[5] = Luminescence Cell-Based Dose Confirmation HTS to Identify Activators of 5'UTR Stem-Loop Driven Alpha-Synuclein mRNA Translation in H4 Neuroglioblastoma Cells. [Related pubchem assays: 1829 (Project Summary), 1814 (Primary HTS)]; format: functional
[6] = biological target: FAD-linked sulfhydryl oxidase ALR (Homo sapiens, UniProt P55789); experiment: inhibitors of human ALR sulfhydryl oxidase, dose response, biochemical, H2O2 detection, luminescence, cherry-pick (AID 493248)
H4 = experiment: Luminescence Cell-Based Dose Response HTS to Identify Activators of 5'UTR Stem-Loop Driven Prion Protein mRNA Translation in H4 Neuroglioblastoma Cells. [Related pubchem assays: 1829 (Project Summary), 1814 (Primary HTS)]; format: functional; conditions: Homo sapiens
[7] = Luminescence Cell-Based Dose Response HTS to Identify Activators of Luciferase Translation or Activity in H4 […] Cells. [Related pubchem assays: 1829 (Project Summary), 1814 (Primary HTS)]; format: functional
Streptococcus = experiment: Group A Streptococcus viability loss, dose response, counter-screen for streptokinase expression inhibitor project, luminescence, BacTiterGlo (AID 1915); format: functional, organism-based;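 also: potency for reduction of bacterial viability or growth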
Streptokinase A = biological target: T5, Streptokinase A (Streptococcus pyogenes serotype M1, UniProt P10520); experiment: S. pyogenes streptokinase expression inhibitors, potency, dose response, plasminogen activation absorbance, OD405 (AID 1914); format: functional, Streptococcus pyogenes M1 GAS;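 also: secreted streptokinase activity via plasminogen activation per viability signal from cell pellet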
T5 sequence (P10520 whole entry): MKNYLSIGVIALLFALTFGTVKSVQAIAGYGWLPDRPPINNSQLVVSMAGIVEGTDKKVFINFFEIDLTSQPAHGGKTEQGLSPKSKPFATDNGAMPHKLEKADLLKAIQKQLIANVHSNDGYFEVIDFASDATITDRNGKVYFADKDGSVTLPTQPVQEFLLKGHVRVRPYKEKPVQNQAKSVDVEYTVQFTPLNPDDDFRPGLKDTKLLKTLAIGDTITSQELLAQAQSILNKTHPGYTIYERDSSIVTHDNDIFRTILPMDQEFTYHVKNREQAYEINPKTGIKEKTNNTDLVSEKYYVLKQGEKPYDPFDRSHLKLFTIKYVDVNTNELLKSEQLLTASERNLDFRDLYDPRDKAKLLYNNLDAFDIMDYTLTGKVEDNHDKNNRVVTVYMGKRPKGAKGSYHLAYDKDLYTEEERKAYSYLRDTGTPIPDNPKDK

[8] = tested on: Streptococcus sp. 'group A'; experiment: growth inhibition of control SK(-) GAS strain, dose response, counter-screen for streptokinase expression inhibitor project, luminescence, kanamycin, BacTiterGlo, confirmation (AID 1900); format: functional, organism-based
Paired box protein Pax-8 = Paired box protein Pax-8 (Homo sapiens, UniProt Q06710); experiment: inhibitors of PAX8-driven TPO luciferase reporter, dose response, RMG-I cells, cherry-pick (AID 687027); format: functional, cell-based;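 also: luciferase reporter driven by Pax8 target thyroperoxidase promoter measured by SteadyGlo luminescence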
Cytochrome P450 2D6 = Cytochrome P450 2D6 (Homo sapiens, UniProt P10635);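 also: CYP2D6 member of a cytochrome P450 panel assay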
[9] = inhibitors of SNCA 5'UTR-driven reporter translation, confirmation, H4 neuroglioma cells, luminescence (AID 1988); format: functional, cell-based
[10] = Luminescence Cell-Based Dose Response HTS to Identify Inhibitors of 5'UTR Stem-Loop Driven Prion Protein mRNA Translation in H4 Neuroglioblastoma Cells. [Related pubchem assays: 1827 (Project Summary), 1813 (Primary HTS)]; format: functional

Sequence of Large T antigen (P03070 whole entry): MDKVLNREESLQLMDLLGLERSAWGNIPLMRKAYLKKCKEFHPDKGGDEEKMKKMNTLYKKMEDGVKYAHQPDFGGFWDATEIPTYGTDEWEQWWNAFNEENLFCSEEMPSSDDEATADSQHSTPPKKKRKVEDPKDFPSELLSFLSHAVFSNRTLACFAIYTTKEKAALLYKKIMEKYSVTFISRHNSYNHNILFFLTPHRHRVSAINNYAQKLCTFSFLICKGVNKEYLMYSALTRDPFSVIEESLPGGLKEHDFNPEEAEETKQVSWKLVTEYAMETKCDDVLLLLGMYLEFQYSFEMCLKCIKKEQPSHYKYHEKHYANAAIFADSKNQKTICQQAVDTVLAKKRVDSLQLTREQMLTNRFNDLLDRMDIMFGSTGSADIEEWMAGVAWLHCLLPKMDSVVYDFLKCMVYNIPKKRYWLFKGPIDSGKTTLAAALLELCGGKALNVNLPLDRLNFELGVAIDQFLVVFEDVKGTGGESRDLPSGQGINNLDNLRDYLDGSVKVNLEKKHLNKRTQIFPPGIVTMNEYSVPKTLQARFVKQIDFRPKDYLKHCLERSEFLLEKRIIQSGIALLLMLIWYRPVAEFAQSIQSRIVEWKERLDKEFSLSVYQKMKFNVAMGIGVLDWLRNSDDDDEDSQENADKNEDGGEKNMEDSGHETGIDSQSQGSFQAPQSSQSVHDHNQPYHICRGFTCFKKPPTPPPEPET
Sequence of Cytochrome P450 2D6 (P10635 whole entry): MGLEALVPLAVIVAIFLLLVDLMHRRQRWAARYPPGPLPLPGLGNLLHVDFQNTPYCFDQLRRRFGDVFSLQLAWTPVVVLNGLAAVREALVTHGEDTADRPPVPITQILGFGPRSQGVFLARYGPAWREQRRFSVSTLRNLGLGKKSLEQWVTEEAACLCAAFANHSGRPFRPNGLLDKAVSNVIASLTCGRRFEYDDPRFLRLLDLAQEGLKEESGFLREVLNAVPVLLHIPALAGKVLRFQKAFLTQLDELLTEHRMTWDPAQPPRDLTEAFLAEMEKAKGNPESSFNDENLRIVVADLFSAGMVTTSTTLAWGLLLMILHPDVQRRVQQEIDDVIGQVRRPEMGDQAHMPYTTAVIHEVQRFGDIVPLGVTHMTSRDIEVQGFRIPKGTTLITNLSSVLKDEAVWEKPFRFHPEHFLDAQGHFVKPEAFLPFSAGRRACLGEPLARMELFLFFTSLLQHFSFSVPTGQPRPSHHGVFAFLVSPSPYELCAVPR
Sequence of Paired box protein Pax-8 (Q06710 whole entry): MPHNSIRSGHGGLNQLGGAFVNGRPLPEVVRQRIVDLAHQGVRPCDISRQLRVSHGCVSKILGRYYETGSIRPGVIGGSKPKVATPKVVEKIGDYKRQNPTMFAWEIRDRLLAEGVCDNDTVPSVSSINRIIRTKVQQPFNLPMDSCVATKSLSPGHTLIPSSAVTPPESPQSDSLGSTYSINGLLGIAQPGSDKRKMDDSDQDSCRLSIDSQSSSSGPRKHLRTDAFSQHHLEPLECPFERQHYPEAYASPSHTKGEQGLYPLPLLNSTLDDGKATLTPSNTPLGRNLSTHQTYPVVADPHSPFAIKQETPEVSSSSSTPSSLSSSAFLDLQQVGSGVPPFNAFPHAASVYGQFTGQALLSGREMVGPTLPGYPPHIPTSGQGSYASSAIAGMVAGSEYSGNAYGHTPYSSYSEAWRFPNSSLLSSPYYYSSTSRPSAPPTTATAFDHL
Sequence of FAD-linked sulfhydryl oxidase ALR (P55789 whole entry): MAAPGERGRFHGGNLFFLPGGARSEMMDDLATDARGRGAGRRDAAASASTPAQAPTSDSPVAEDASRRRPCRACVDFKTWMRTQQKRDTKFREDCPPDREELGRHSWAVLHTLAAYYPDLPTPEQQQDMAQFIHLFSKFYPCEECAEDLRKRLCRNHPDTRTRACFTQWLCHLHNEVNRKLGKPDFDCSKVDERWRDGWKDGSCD

| SMILES | IC50 (Large T antigen) | EC50 [3] | IC50 [4] | also measured |
| --- | --- | --- | --- | --- |
| CCOc1cc(C(c2c(C)n[nH]c2O)c2c(C)n[nH]c2O)ccc1OC(=O)c1cccc([N+](=O)[O-])c1 | > 100 µM (active) | – | – | EC50 (Protein RecA): 0.205 µM (active); AC50 [1]: 0.365 µM (active) |
| CN1C(=O)NC(c2ccc(O)cc2)C2=C1CN(c1ccc(O)cc1)C2=O (stereo not given) | 8.64 µM (active) | – | – | IC50 [2]: 34.6 µM (active) |
| Cc1cc(SCC(=O)Nc2cccc(S(N)(=O)=O)c2)c(C)cc1Br | – | > 53 µM (inactive) | > 47.1 µM (inactive) | – |
| O=C(NC(=S)N1CCN(c2ccc(O)cc2)CC1)c1cccs1 | 5.39 µM (active) | – | – | – |
| CCOC(=O)C1=C(O)/C(=C\c2ccc(O)c(OCC)c2)N=C1C | 9.94 µM (active) | – | – | IC50 [2]: 43.3 µM (active) |
| COc1cc(C#CC#CCN2CCCCC2)ccc1O | 10.3 µM (active) | – | – | EC50 [5]: 6.87 µM (active); AC50 [6]: 3.57 µM (active); EC50 (H4): > 120 µM (not active); EC50 [7]: 6.95 µM (active) |
| Nc1nc(-c2ccc3c(c2)OCCO3)cs1 | – | > 53 µM (inactive) | > 47.1 µM (inactive) | – |
| COc1ccc(NC(=O)CN2CCC3(O)CCCCC3C2c2cc(OC)ccc2OC)cc1 (stereo not given) | – | > 53 µM (inactive) | > 47.1 µM (inactive) | – |
| Nc1ccc(NC(=O)NC2CCCCC2)cc1 | 10.5 µM (active) | – | – | – |
| CC(C)CNC(=O)CN1c2cccc3cccc(c23)S1(=O)=O | – | > 53 µM (inactive) | > 47.1 µM (inactive) | – |
| CC(=O)Nc1ccc(S(=O)(=O)Nc2nc3ccccc3nc2Nc2ccc(N)cc2)cc1 | 18.5 µM (active) | – | – | – |
| CCCN1CCc2c(sc(NC(=O)c3ccc(S(=O)(=O)N4CCN(C(=O)OCC)CC4)cc3)c2C(N)=O)C1 | – | 15.2 µM (active) | – | EC50 (Streptococcus): > 150 µM (not active); EC50 (Streptokinase A): > 150 µM (not active); EC50 [8]: 51.8 µM (active) |
| CCCC1=Nc2nc(C)nn2C(c2cccnc2)/C1=C(\O)OCC (stereo not given) | – | > 53 µM (inactive) | > 47.1 µM (inactive) | – |
| CCOC(=O)C1(C(=O)OCC)CCN(S(=O)(=O)c2ccccc2)CC1 | – | > 53 µM (inactive) | > 47.1 µM (inactive) | – |
| Cc1ccc(S(=O)(=O)NN=Cc2c(O)ccc3ccccc23)cc1 | – | > 53 µM (inactive) | > 47.1 µM (inactive) | – |
| COc1ccccc1S(=O)(=O)N(C)C[C@@H]1Oc2cc(C#CCC3CCCC3)ccc2S(=O)(=O)N([C@@H](C)CO)C[C@@H]1C | – | – | – | AC50 (Paired box protein Pax-8): 6.16 µM (active) |
| N#C/C(=C\c1ccc(O)c(O)c1)C(=O)NCCc1ccccc1 | 7.1 µM (active) | – | – | AC50 (Cytochrome P450 2D6): 39.8 µM (inconclusive) |
| O=C(O)c1cccc(N/N=C/c2cccc3ccccc23)c1 | – | – | – | EC50 [9]: 1.5 µM (active); EC50 [10]: 4.51 µM (active) |
| CCn1c(SCC(=O)N/N=C/c2ccc(O)c(OC)c2)nc2ccccc21 | 20.4 µM (active) | – | – | – |
| CCOc1ccc(/C=N/NC(=O)CSc2ccccn2)cc1O | 17.7 µM (active) | – | – | – |
